# Test results taken from patent US6653442B1, “Protegrins” (priority 1993, dated 2003).
# Bridge positions count the residues as written; N and C are the ends. Peptide text beside a SMILES is read from it.
# Tests used:
# [1] = molecular target: human leukocyte cathepsin G (Homo sapiens, UniProt P08311); assay type: in vitro ADME; conditions: pH 7
# E. coli = assay: Antimicrobial activity with and without lysozyme in borate buffered saline; assay type: cell-based; conditions: presence vs absence of lysozyme
# From the text: This effect was more pronounced when the PG-3 was autoclaved and similar patterns were obtained for both the free-acid form and the amide. Accordingly, the protegrins may be used as preservatives in such compositions or as antimicrobials for treatment of eye infections.
# L. monocytogenes = assay: Radial diffusion assay in 25 mM borate buffer, L. monocytogenes; assay type: cell-based; conditions: listed as nPG-3
# [2] = tested on: Listeria monocytogenes, strain EGD; assay: Radial diffusion assay in agarose gels, L. monocytogenes; assay type: cell-based; conditions: for antibacterial activity against Listeria monocytogenes (FIG. 4b): radial diffusion, underlay agar pH 6.5
# Procedure: Aliquots (66 μl) of each fraction were dried by vacuum centrifugation and resuspended in 6.6 μl of 0.01% acetic acid. Five μl samples of this concentrate were tested for antimicrobial activity against E. coliML-3, L. monocytogenes, strain EGD and C. albicans, strain 820, using radiodiffusion and gel overlay techniques as described by Lehrer, R. I. et al. J Immunol Meth (1991) 137:167-173. […] The units of activity in the radial diffusion assay were measured as described; 10 units correspond to a 1 mm diameter clear zone around the sample well. Activity was found in a large number of fractions.
# The radial diffusion assay in agarose gels described in Example 1 was also used to test the activity of the purified protegrins. FIGS. 4a, 4b and 4c show the results against three test organisms in units described as above.
# The antimicrobial activity of the linearalized forms was also compared with that of the native protegrins. Both linearalized and cyclic forms of the protegrins tested continue to show antimicrobial activity, although the effectiveness of these peptides as antimicrobials depends on the nature of the target organism and on the test conditions. The antimicrobial activity of native PG-1 and its linearalized form (cam-PG-1) and PG-3 and its linearalized form (cam-PG-3) were tested according to the procedure set forth in Example 1 as described by Lehrer, R. I. et al. J Immunol Meth (1991) 137:167-173.
# Using standard solid phase techniques, a protegrin having the amino acid sequence of PG-1, but wherein every amino acid is in the D form was prepared. This form of protegrin was tested against E. coli, L. monocytogenes, C. albicans and other microbes in the absence and presence of protease and otherwise as described for the radiodiffusion assay in agarose gels set forth in Example 1.
# The kite and bullet PG-1 compounds prepared in Example 12 were tested for antimicrobial activity using the radial diffusion assay described in Example 1 as published by Lehrer, R. I. et al., J Immunol Meth (1991) 137:167-173, except that the underlay agars contained […] sodium phosphate buffer with a final pH of 7.4. As described in Example 1, 0.3 mg/ml tripticase soy broth powder and 1% agarose were used as well in the underlay agar. In some cases 100 mM NaCl or RPMI plus 2.5% normal human serum (NHS) was added to the agar.
# C. albicans, strain 820 = assay type: cell-based, Candida albicans; conditions: for activity against C. albicans in NaCl (FIG. 5a): in the presence of 100 mM NaCl; for antifungal activity against Candida albicans (FIG. 4c): radial diffusion, underlay agar pH 6.5
# Procedure: Similarly, using C. albicans as a target organism, underlayers were prepared with 10 mM sodium phosphate with and without 10% normal human serum.
# [3] = tested on: lipid polysaccharide (LPS) of E. coli strain 0.55B5; assay: Limulus amebocyte lysate (LAL) test for endotoxin binding; assay type: biochemical; conditions: for gel formation in LAL test: LPS 0.05 endotoxin unit/ml
# Candida albicans = assay: Radial diffusion assay in 25 mM borate buffer, Candida albicans; assay type: cell-based; conditions: listed as nPG-3
# pepsin = conditions: 4 hours at pH 2.0 with 0.5 μg/ml pepsin, then neutralized
# E. coli ML-35P = assay: Radial diffusion assay in agarose gels, E. coli; assay type: cell-based; conditions: for activity against E. coli in NaCl (FIG. 5b): in the presence of 100 mM NaCl; for antibacterial activity against E. coli (FIG. 4a): radial diffusion, underlay agar pH 6.5
# Procedure: Aliquots (66 μl) of each fraction were dried by vacuum centrifugation and resuspended in 6.6 μl of 0.01% acetic acid. […] The units of activity in the radial diffusion assay were measured as described; 10 units correspond to a 1 mm diameter clear zone around the sample well.
# human leukocyte elastase = human leukocyte elastase (Homo sapiens, UniProt P08246); assay type: in vitro ADME; conditions: pH 7
# Sequence of human leukocyte elastase (P08246 30-267): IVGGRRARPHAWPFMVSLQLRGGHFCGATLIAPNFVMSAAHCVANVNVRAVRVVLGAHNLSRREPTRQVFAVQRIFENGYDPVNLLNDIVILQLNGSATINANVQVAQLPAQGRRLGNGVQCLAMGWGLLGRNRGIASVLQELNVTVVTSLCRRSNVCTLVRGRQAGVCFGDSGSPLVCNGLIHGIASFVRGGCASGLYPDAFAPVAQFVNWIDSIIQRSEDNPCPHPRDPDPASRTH
# [4] = tested on: Trichomonas vaginallis strain C1 (ATCC 30001); strains MR and TV; assay: Trichomonas vaginallis exposure assay
# HIVJR-CSF and HIVJR-FL = assay: HIV infection of human peripheral blood mononuclear cells, p24 antigen
# Procedure: Briefly, the mononuclear cell fraction is recovered from normal donor leukopacs from the American Red Cross using a Ficoll-hypaque density gradient. The mononuclear cells are resuspended at 1×10^6 cells per ml in RPMI 1640 medium with 20% fetal bovine serum, 1% penn/strep with fungizone and 0.5% PHA and incubated 24 hours at 37° C. in 5% CO2. The cells are centrifuged, washed and then expanded for 24 hours in growth medium.
# Non-laboratory adapted, cloned HIVJR-CSF and HIVJR-FL were electroporated into the human peripheral blood mononuclear cells prepared as described above. Titers were determined and in general, multiplicities of infection (MOI) of about 4,000 infectious units per cell are used (which corresponds to 25-40 picograms per ml HIV p24 antigen in the supernatant).
# In the assay, the HIV stocks prepared as above were diluted to the correct MOI and the PBM are added to 24 well plates at a concentration of 2×10^6 per ml. One μl total volume is added to each well. The peptide to be tested is added in growth medium to achieve the final desired concentration. Then the appropriate number of MOI are added. To assay viral growth, 200 μl of supernatant is removed on days 3 and 7 and the concentration of p24 antigen is determined using a commercial assay (Coulter Immunology, Hialeah, Fla.). Controls include duplicate wells containing cells alone, cells plus peptide at 5 μg/ml cells with virus but not peptide and cells with virus in the presence of AZT at 10^−5 M-10^−8 M.
# Staphylococcus aureus = assay: Radial diffusion assay in agarose gels, S. aureus; assay type: cell-based
# K. pneumoneae 270 = assay: Radial diffusion assay in agarose gels, K. pneumoniae; assay type: cell-based
# T. pallidum = assay: Treponema pallidum immobilization assay; assay type: cell-based
# Procedure: Bacteriocidal activity against this organism, which is the etiologic agent of syphilis, was also tested. Peptides were evaluated at a series of concentrations of 1.758 μg to 56.25 μg in 90 μl of unheated normal rabbit serum. The serum served as a nutrient for the spirochetes to allow their survival during incubation as well as providing a source of complement. Ten μl of a suspension of T. pallidum containing about 5×10^7/μl organisms was added to each tube and the mixtures with the appropriate peptides were incubated at 34° C. under 95 k N2 and 5% CO2. At time zero, just prior to incubation, 4 hours and 16 hours, 25 randomly selected organisms were examined for the presence or absence of motility. The 50 k immobilizing end point (IE50) was calculated to indicate the concentration needed to immobilize 50% of the spirochetes.
# [5] = tested on: N. gonorrhoeae strains FA 19 and F 62
# Procedure: Nonpiliated transparent variants of strains FA 19 and F 62 were propagated on GCB agar plates containing glucose and iron supplements overnight at 37° C. under 3.8% V/V CO2. These strains were chosen for their adaptability to the assay.
# The overnight growth is removed from the agar plate and suspended in GCB broth containing supplements and sodium bicarbonate and grown with shaking at 37° C. to mid log phase. The culture is diluted 1:100 in GCB broth to give about 10^6 CFU/ml and serial dilutions were plated onto GCB agar.
# Ten μl of each dilution is added to a sterile polystyrene tube containing 90 μl of diluted bacteria and the tubes are shaken at 37° C. for 45 minutes. The contents are serially diluted 1:10 and plated on to GCB agar plates which are incubated in a CO2 incubator. CFU are counted after 24 hours and the log bactericidal activity calculated.
# Sequence of human leukocyte cathepsin G (P08311 21-244): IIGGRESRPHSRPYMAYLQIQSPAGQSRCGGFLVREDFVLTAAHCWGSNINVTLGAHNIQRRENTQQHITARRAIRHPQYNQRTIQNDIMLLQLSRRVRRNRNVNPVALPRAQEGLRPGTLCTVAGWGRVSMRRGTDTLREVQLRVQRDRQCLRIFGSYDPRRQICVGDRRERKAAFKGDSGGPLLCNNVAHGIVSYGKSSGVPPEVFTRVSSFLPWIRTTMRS
smiles,measurement,setting,value
"CC(C)C[C@H](NC(=O)CNC(=O)CNC(=O)CNC(=O)[C@@H](N)CCCNC(=N)N)C(=O)N[C@H]1CSSC[C@@H](C(=O)N[C@H](C(=O)NCC(=O)N[C@@H](CCCNC(=N)N)C(N)=O)C(C)C)NC(=O)[C@H](C(C)C)NC(=O)[C@@H]2CSSC[C@H](NC(=O)[C@H](Cc3ccc(O)cc3)NC1=O)C(=O)N[C@@H](CCCNC(=N)N)C(=O)N[C@@H](CCCNC(=N)N)C(=O)N[C@@H](CCCNC(=N)N)C(=O)N[C@@H](Cc1ccccc1)C(=O)N2 [PG-3, R-G-G-G-L-C-Y-C-R-R-R-F-C-V-C-V-G-R] (H-RGGGLCYCRRRFCVCVGR-NH2; disulfide 6-15, 8-13; N-terminus assumed)",degradation by human leukocyte cathepsin G,[1],not degraded
same,effect of lysozyme on effectiveness against E. coli,E. coli,enhanced the effectiveness
same,ESTIMATED MINIMAL BACTERICIDAL CONCENTRATIONS,L. monocytogenes; 25 mM borate buffer,25.0 µg/mL
same,ESTIMATED MINIMAL BACTERICIDAL CONCENTRATIONS,L. monocytogenes; borate buffer + 120 mM NaCl,7.0 µg/mL
same,ESTIMATED MINIMAL BACTERICIDAL CONCENTRATIONS,L. monocytogenes; borate buffer + EDTA & NaCl,5.7 µg/mL
same,antibacterial activity against Listeria monocytogenes (FIG. 4b),[2],effective
same,activity against Candida albicans in fetal calf serum (FIG. 5c),"C. albicans, strain 820; 90% fetal calf serum",retained
same,activity against C. albicans in NaCl (FIG. 5a),"C. albicans, strain 820",retain their activity
same,antifungal activity against Candida albicans (FIG. 4c),"C. albicans, strain 820",effective
same,"gel formation in LAL test, cyclic vs linearalized (Table 3)",[3]; 2.5 μg peptide,no gel
same,gel formation in LAL test,"[3]; 2.5 μg peptide in 0.2 ml, listed as nPG-3",trace
same,"gel formation in LAL test, cyclic vs linearalized (Table 3)",[3]; 5 μg peptide,no gel
same,gel formation in LAL test,[3]; 5 μg peptide in 0.2 ml,no gel
same,gel formation in LAL test,[3]; 10 μg peptide in 0.2 ml,no gel
same,ESTIMATED MINIMAL FUNGICIDAL CONCENTRATIONS,Candida albicans; 25 mM borate buffer,32.0 µg/mL
same,ESTIMATED MINIMAL FUNGICIDAL CONCENTRATIONS,Candida albicans; borate buffer + 120 mM NaCl,9.0 µg/mL
same,ESTIMATED MINIMAL FUNGICIDAL CONCENTRATIONS,Candida albicans; borate buffer + EDTA & NaCl,8.0 µg/mL
same,"residual antimicrobial activity against C. albicans, E. coli and L. monocytogenes after pepsin",pepsin,fully retained
same,activity against E. coli in NaCl (FIG. 5b),E. coli ML-35P,retain their activity
same,antibacterial activity against E. coli (FIG. 4a),E. coli ML-35P,more effective against E. coli ML-35P than HNP-1 and only slightly less effective than NP-1
same,degradation by human leukocyte elastase,human leukocyte elastase,not degraded
same,motility of T. vaginallis,[4]; 25 μg/ml,retained their motility
"CC(C)C[C@H](NC(=O)[C@H](CCCNC(=N)N)NC(=O)CNC(=O)CNC(=O)[C@@H](N)CCCNC(=N)N)C(=O)N[C@H]1CSSC[C@@H](C(=O)N[C@H](C(=O)NCC(=O)N[C@@H](CCCNC(=N)N)C(N)=O)C(C)C)NC(=O)[C@H](C(C)C)NC(=O)[C@@H]2CSSC[C@H](NC(=O)[C@H](Cc3ccc(O)cc3)NC1=O)C(=O)N[C@@H](CCCNC(=N)N)C(=O)N[C@@H](CCCNC(=N)N)C(=O)N[C@@H](CCCNC(=N)N)C(=O)N[C@@H](Cc1ccccc1)C(=O)N2 [PG-1, R-G-G-R-L-C-Y-C-R-R-R-F-C-V-C-V-G-R]",Activity against human STD pathogens: HIV-1,HIVJR-CSF and HIVJR-FL,Active
same,antiviral activity by time of addition,"HIVJR-CSF and HIVJR-FL; 2 hours prior to virus, at the time of virus, or 2 hours after infection",showed antiviral activity
same,antiviral activity by time of addition,HIVJR-CSF and HIVJR-FL; added 24 hours after infection,no antiviral activity
same,degradation by human leukocyte cathepsin G,[1],not degraded
same,antibacterial activity against S. aureus (FIG. 4d),Staphylococcus aureus,inhibit the growth
same,antibacterial activity against K. pneumoneae (FIG. 4e),K. pneumoneae 270,inhibit the growth
same,inhibition of growth of L. monocytogenes (FIG. 12d),[2]; absence of proteases,comparably active
same,inhibition of growth of L. monocytogenes (FIG. 12c),"[2]; presence of trypsin, chymotrypsin",adversely affected
same,antibacterial activity against Listeria monocytogenes (FIG. 4b),[2],effective
same,activity against C. albicans in NaCl (FIG. 5a),"C. albicans, strain 820",retain their activity
same,antifungal activity against Candida albicans (FIG. 4c),"C. albicans, strain 820",effective
same,Activity against human STD pathogens: Treponema pallidum,T. pallidum,Active
same,gel formation in LAL test,[3]; 1.0 μg peptide in 0.2 ml,no gel
same,"gel formation in LAL test, cyclic vs linearalized (Table 3)",[3]; 2.5 μg peptide,no gel
same,gel formation in LAL test,[3]; 2.5 μg peptide in 0.2 ml,no gel
same,"gel formation in LAL test, cyclic vs linearalized (Table 3)",[3]; 5 μg peptide,no gel
same,gel formation in LAL test,[3]; 5 μg peptide in 0.2 ml,no gel
same,gel formation in LAL test,[3]; 10 μg peptide in 0.2 ml,no gel
same,"residual antimicrobial activity against C. albicans, E. coli and L. monocytogenes after pepsin",pepsin,fully retained
same,inhibition of growth of E. coli (FIG. 12a),E. coli ML-35P; absence of protease,equally effective
same,activity against E. coli in NaCl (FIG. 5b),E. coli ML-35P,retain their activity
same,antibacterial activity against E. coli (FIG. 4a),E. coli ML-35P,more effective against E. coli ML-35P than HNP-1 and only slightly less effective than NP-1
same,Activity against human STD pathogens: Neisseria gonorrhoeae,[5],Active
same,degradation by human leukocyte elastase,human leukocyte elastase,not degraded
same,Activity against human STD pathogens: Trichomonas vaginalis,[4],Moderately
same,growth in Diamond's medium after exposure,"[4]; strain C1, 50 μg/ml",failed to grow
same,motility of T. vaginallis,"[4]; strain C1, 50 μg/ml, RPMI+1% fetal calf serum, within a few minutes",became stationary
same,lysis of T. vaginallis,"[4]; strain C1, 50 μg/ml, over the ensuing 15-30 minutes",lysed
same,susceptibility of metronidazole-resistant clinical isolates,"[4]; strains MR and TV, 100 and 50 μg/ml",susceptible
